Where two headings read alike, the source gives them in different places.
Experiments:
[1] = target: human PDE10A2 (Homo sapiens (Human), UniProt Q9Y233); test: PDE10 fluorescence polarization (IMAP FP) inhibition assay; type: biochemical
Method: The activity of the compounds in accordance with the present invention as PDE10 inhibitors may be readily determined without undue experimentation using a fluorescence polarization (FP) methodology that is well known in the art (Huang, W., et al., J. Biomol Screen, 2002, 7: 215).
In a typical experiment the PDE10 inhibitory activity of the compounds of the present invention was determined in accordance with the following experimental method. PDE10A2 was amplified from human fetal brain cDNA (Clontech, Mountain View, Calif.) using a forward primer corresponding to nucleotides 56-77 of human PDE10A2 (Accession No. AF127480, Genbank Identifier 4894716), containing a Kozak consensus sequence, and a reverse primer corresponding to nucleotides 2406-2413 of human PDE10A2 (Accession No. AF127480, Genbank Identifier 4894716). Amplification with Easy-A polymerase (Stratagene, La Jolla, Calif.) was 95° C. for 2 minutes followed by thirty three cycles of 95° C. for 40 seconds, 55° C. for 30 seconds, and 72° C. for 2 minutes 48 seconds. Final extension was 72° C. for 7 minutes. The PCR product was TA cloned into pcDNA3.2-TOPO (Invitrogen, Carlsbad, Calif.) according to standard protocol. AD293 cells with 70-80% confluency were transiently transfected with human PDE10A2/pcDNA3.2-TOPO using Lipofectamine 2000 according to manufacturer specifications (Invitrogen, Carlsbad, Calif.). Cells were harvested 48 hours post-transfection and lysed by sonication (setting 3, 10×5 sec pulses) in a buffer containing 20 mM HEPES, 1 mM EDTA and protease inhibitor cocktail (Roche). Lysate was collected by centrifugation at 75,000×g for 20 minutes. Supernatant containing the cytoplasmic fraction was used for evaluation of PDE10A2 activity. The fluorescence polarization assay for cyclic nucleotide phosphodiesterases was performed using an IMAP® FP kit supplied by Molecular Devices, Sunnyvale, Calif. (product # R8139). IMAP® technology has been applied previously to phosphodiesterase assays (Huang, W., et al., J. Biomol Screen, 2002, 7: 215). Assays were performed at room temperature in 384-well microtiter plates with an incubation volume of 20.2 μL. Solutions of test compounds were prepared in DMSO and serially diluted with DMSO to yield 8 μL of each of 10 solutions differing by 3-fold in concentration, at 32 serial dilutions per plate. […] 0% of inhibition is determined by using DMSO (1% final concentrations).
A Labcyte Echo 555 (Labcyte, Sunnyvale, Calif.) is used to dispense 200 nL from each well of the titration plate to the 384 well assay plate. A solution of enzyme (1/1600 dilution from aliquots; sufficient to produce 20% substrate conversion) and a separate solution of FAM-labeled cAMP PDE from Molecular Devices (product # R7506), at a final concentration of 50 nM are made in the assay buffer (10 mM Tris HCl, pH 7.2, 10 mM MgCl2, 0.05% NaN3 0.01% Tween-20, and 1 mM DTT). The enzyme and the substrate are then added to the assay plates in two consecutive additions of 10 μL, and then shaken to mix. The reaction is allowed to proceed at room temperature for 30 minutes. […] The enzymatic reaction is stopped by addition of 60 μL of the binding solution to each well of the assay plates and the plates are sealed and shaken for 10 seconds. The plate was incubated at room temperature for at least one hour prior to determining the fluorescence polarization (FP). The parallel and perpendicular fluorescence of each well of the plate was measured using a Perkin Elmer EnVision™ plate reader (Waltham, Mass.).
Fluorescence polarization (mP) was calculated from the parallel (S) and perpendicular (P) fluorescence of each sample well and the analogous values for the median control well, containing only substrate (So and Po), using the following equation: Polarization (mP)=1000*(S/So−P/Po)/(S/So+P/Po).
Dose-inhibition profiles for each compound were characterized by fitting the mP data to a four-parameter equation given below.

[2] = target: CYP2C9 (Homo sapiens (Human), UniProt P11712); test: reversible inhibition of CYP2C9; type: in vitro ADME
[3] = target: CYP3A4 (Homo sapiens (Human), UniProt P08684); test: time-dependent inhibition (TDI) of CYP3A4; type: in vitro ADME; settings: for time-dependent inhibition (TDI) of the CYP3A4 enzyme: result in words
[4] = comparison table with Compounds A, B, C, read-out: PDE10 Ki

Chain of CYP2C9 (P11712 whole entry): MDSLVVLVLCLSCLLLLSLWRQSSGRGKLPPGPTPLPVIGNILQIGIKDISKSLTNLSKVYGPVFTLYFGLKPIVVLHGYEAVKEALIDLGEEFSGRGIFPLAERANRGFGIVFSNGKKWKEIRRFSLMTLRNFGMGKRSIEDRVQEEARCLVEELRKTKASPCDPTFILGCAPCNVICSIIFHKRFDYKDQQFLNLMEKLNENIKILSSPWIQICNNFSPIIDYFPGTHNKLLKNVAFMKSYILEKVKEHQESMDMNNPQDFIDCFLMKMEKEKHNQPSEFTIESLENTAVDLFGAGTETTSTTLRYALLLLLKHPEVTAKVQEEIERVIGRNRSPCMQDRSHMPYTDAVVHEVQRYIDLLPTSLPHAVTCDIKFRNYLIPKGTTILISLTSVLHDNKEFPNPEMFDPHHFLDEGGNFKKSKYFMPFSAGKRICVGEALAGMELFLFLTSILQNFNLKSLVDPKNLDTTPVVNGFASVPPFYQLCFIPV
Chain of CYP3A4 (P08684 whole entry): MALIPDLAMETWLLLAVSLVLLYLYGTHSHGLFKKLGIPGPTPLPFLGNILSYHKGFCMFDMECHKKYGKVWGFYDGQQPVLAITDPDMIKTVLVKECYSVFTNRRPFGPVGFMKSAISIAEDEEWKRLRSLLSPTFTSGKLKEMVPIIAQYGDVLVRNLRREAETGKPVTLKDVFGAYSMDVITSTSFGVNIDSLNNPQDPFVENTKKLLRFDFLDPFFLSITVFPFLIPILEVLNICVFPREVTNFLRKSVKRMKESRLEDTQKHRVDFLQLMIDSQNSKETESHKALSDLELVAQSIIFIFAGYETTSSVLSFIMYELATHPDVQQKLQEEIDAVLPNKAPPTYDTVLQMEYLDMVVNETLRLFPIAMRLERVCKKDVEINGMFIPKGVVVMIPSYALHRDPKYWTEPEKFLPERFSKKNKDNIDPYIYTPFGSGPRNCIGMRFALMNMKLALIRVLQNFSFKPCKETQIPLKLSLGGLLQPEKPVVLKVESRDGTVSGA
Chain of human PDE10A2 (Q9Y233 267-1055): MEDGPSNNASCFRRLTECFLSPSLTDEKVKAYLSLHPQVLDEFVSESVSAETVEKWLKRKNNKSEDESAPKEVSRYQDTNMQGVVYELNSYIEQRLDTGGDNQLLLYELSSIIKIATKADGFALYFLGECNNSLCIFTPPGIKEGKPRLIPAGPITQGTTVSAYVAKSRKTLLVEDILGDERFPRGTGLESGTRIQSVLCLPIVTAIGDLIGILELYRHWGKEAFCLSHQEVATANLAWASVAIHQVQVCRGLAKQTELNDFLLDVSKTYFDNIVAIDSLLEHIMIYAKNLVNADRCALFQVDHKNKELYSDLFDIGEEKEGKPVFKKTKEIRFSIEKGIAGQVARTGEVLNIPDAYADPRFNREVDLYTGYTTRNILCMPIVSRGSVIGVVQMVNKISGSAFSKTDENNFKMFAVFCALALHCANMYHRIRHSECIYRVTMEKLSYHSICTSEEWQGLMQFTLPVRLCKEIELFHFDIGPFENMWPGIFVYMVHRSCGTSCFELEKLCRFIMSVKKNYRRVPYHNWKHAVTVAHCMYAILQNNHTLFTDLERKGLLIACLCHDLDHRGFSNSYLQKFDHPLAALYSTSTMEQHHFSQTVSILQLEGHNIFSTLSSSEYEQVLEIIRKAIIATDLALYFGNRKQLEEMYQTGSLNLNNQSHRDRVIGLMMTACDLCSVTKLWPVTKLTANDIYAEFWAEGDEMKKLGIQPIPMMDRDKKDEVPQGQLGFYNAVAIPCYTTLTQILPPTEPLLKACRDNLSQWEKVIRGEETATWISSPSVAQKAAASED

## CCC(O)c1nc(C)nn1-c1cc(N2CC(c3nc4ccccc4n3C)C2)nc(C)n1 (single isomer, unassigned) [Example 4b, 1-(3-methyl-1-(2-methyl-6-(3-(1-methyl-1H-benzo[d]imidazol-2-yl)azetidin-1-yl)pyrimidin-4-yl)-1H-1,2,4-triazol-5-yl)propan-1-ol]
[1]; [4]
  Ki: 0.51 nM
[1]; read-out: PDE10a Ki
  Ki: 0.41 nM
[2]
  IC50: > 50000 nM
[3]
  TDI CYP3A4 shift ratio: 1
  time-dependent inhibition (TDI) of the CYP3A4 enzyme: do not exhibit TDI of CYP3A4

## Cc1nc(N2CC(c3nc4ccccc4n3C)C2)cc(-n2nc(C)nc2[C@@H](C)O)n1 [Example 2, (R)-1-(3-methyl-1-(2-methyl-6-(3-(1-methyl-1H-benzo[d]imidazol-2-yl)azetidin-1-yl)pyrimidin-4-yl)-1H-1,2,4-triazol-5-yl)ethanol]
[1]; [4]
  Ki: 1.2 nM
[1]; read-out: PDE10a Ki
  Ki: 1.2 nM
[2]
  IC50: > 50000 nM
[3]
  TDI CYP3A4 shift ratio: 1
  time-dependent inhibition (TDI) of the CYP3A4 enzyme: do not exhibit TDI of CYP3A4

## Cc1nc(N2CC(c3nc4ccccc4n3C)C2)cc(-n2nc(C)nc2C(O)C2CC2)n1 (single isomer, unassigned) [Example 6a, cyclopropyl(3-methyl-1-(2-methyl-6-(3-(1-methyl-1H-benzo[d]imidazol-2-yl)azetidin-1-yl)pyrimidin-4-yl)-1H-1,2,4-triazol-5-yl)methanol]
[1]; [4]
  Ki: 0.17 nM
[1]; read-out: PDE10a Ki
  Ki: 0.17 nM
[2]
  IC50: > 50000 nM
[3]
  TDI CYP3A4 shift ratio: 1
  time-dependent inhibition (TDI) of the CYP3A4 enzyme: do not exhibit TDI of CYP3A4

## Cc1nc([C@@H]2C[C@H]2c2nc3ccccc3n2C)cc(-n2nc(C)nc2C(C)(C)O)n1 [Compound A, 2-(3-methyl-1-(2-methyl-6-((1R,2R)-2-(1-methyl-1H-benzo[d]imidazol-2-yl)cyclopropyl)pyrimidin-4-yl)-1H-1,2,4-triazol-5-yl)propan-2-ol, reference compound]
[1]; [4]
  Ki: 4.2 nM
[2]
  IC50: > 50000 nM
[3]
  TDI CYP3A4 shift ratio: 1

## Cc1nc(N2CC(c3nc4ccccc4n3C)C2)cc(-n2nc(C)nc2[C@H](C)O)n1 [Example 1, (S)-1-(3-methyl-1-(2-methyl-6-(3-(1-methyl-1H-benzo[d]imidazol-2-yl)azetidin-1-yl)pyrimidin-4-yl)-1H-1,2,4-triazol-5-yl)ethanol]
[1]; read-out: PDE10a Ki
  Ki: 0.23 nM
[2]
  IC50: > 50000 nM
[3]
  TDI CYP3A4 shift ratio: 1
  time-dependent inhibition (TDI) of the CYP3A4 enzyme: do not exhibit TDI of CYP3A4

## COCc1nc(C)nn1-c1cc([C@@H]2C[C@H]2c2nc3ccccc3n2C)nc(C)n1 [Compound C, 2-((1R,2R)-2-(6-(5-(methoxymethyl)-3-methyl-1H-1,2,4-triazol-1-yl)-2-methylpyrimidin-4-yl)cyclopropyl)-1-methyl-1H-benzo[d]imidazole, reference compound]
[1]; [4]
  Ki: 0.49 nM
[2]
  IC50: 46000 nM
[3]
  TDI CYP3A4 shift ratio: >1.98
  time-dependent inhibition (TDI) of the CYP3A4 enzyme: exhibited time-dependent inhibition (TDI) of the CYP3A4 enzyme

## CCC(O)c1nc(C)nn1-c1cc([C@@H]2C[C@H]2c2nc3ccccc3n2C)nc(C)n1 (single isomer, unassigned) [Example 19a]
[2]
  IC50: > 50000 nM
[3]
  time-dependent inhibition (TDI) of the CYP3A4 enzyme: do not exhibit TDI of CYP3A4

## Cc1nc(N2CC(c3nc4ccccc4n3C)C2)cc(-n2nc(C)nc2C(O)C(C)C)n1 (single isomer, unassigned) [Example 5b, 2-methyl-1-(3-methyl-1-(2-methyl-6-(3-(1-methyl-1H-benzo[d]imidazol-2-yl)azetidin-1-yl)pyrimidin-4-yl)-1H-1,2,4-triazol-5-yl)propan-1-ol]
[1]; read-out: PDE10a Ki
  Ki: 0.77 nM

## Cc1nc([C@@H]2C[C@H]2c2nc3ccccc3n2C)cc(-n2nc(C)nc2[C@H](C)O)n1 [Example 13, (S)-1-(3-methyl-1-(2-methyl-6-((1R,2R)-2-(1-methyl-1H-benzo[d]imidazol-2-yl)cyclopropyl)pyrimidin-4-yl)-1H-1,2,4-triazol-5-yl)ethanol]
[1]; [4]
  Ki: 0.74 nM
[1]; read-out: PDE10a Ki
  Ki: 0.74 nM
[2]
  IC50: > 50000 nM
[3]
  TDI CYP3A4 shift ratio: 1
  time-dependent inhibition (TDI) of the CYP3A4 enzyme: do not exhibit TDI of CYP3A4

## Cc1nc(N2CC(c3nc4ccccc4n3C)C2)cc(-n2nc(C)nc2C(O)C(F)F)n1 (single isomer, unassigned) [Example 11b, 2,2-difluoro-1-(3-methyl-1-(2-methyl-6-(3-(1-methyl-1H-benzo[d]imidazol-2-yl)azetidin-1-yl)pyrimidin-4-yl)-1H-1,2,4-triazol-5-yl)ethanol]
[1]; read-out: PDE10a Ki
  Ki: 3 nM

## Cc1nc(N2CC(c3nc4ccccc4n3C)C2)cc(-n2nc(C)nc2C(O)C(F)(F)F)n1 (single isomer, unassigned) [Example 3b, 2,2,2-trifluoro-1-(3-methyl-1-(2-methyl-6-(3-(1-methyl-1H-benzo[d]imidazol-2-yl)azetidin-1-yl)pyrimidin-4-yl)-1H-1,2,4-triazol-5-yl)ethanol]
[1]; [4]
  Ki: 0.06 nM
[1]; read-out: PDE10a Ki
  Ki: 0.06 nM
[2]
  IC50: > 50000 nM
[3]
  TDI CYP3A4 shift ratio: 1
  time-dependent inhibition (TDI) of the CYP3A4 enzyme: do not exhibit TDI of CYP3A4

## Cc1nc(N2CC(c3nc4ccccc4n3C)C2)cc(-n2nc(C)nc2C(O)C(F)F)n1 (single isomer, unassigned) [Example 11a, 2,2-difluoro-1-(3-methyl-1-(2-methyl-6-(3-(1-methyl-1H-benzo[d]imidazol-2-yl)azetidin-1-yl)pyrimidin-4-yl)-1H-1,2,4-triazol-5-yl)ethanol]
[1]; read-out: PDE10a Ki
  Ki: 0.65 nM

## Cc1nc([C@@H]2C[C@H]2c2nc3ccccc3n2C)cc(-n2nc(C)nc2[C@H](O)c2ccccc2)n1 [Example 15, (R)-(3-methyl-1-(2-methyl-6-((1R,2R)-2-(1-methyl-1H-benzo[d]imidazol-2-yl)cyclopropyl)pyrimidin-4-yl)-1H-1,2,4-triazol-5-yl)(phenyl)methanol]
[1]; read-out: PDE10a Ki
  Ki: 0.09 nM

## Cc1nc(C(C)O)n(-c2cc(N3CC(c4nc5ccccc5n4C)C3)nc(C(F)(F)F)n2)n1 (stereo not shown) [Example 8, 1-(3-methyl-1-(6-(3-(1-methyl-1H-benzo[d]imidazol-2-yl)azetidin-1-yl)-2-(trifluoromethyl)pyrimidin-4-yl)-1H-1,2,4-triazol-5-yl)ethanol]
[1]; read-out: PDE10a Ki
  Ki: 0.83 nM

## CCC(O)c1nc(C)nn1-c1cc(N2CC(c3nc4ccccc4n3C)C2)nc(C)n1 (stereo not shown) [Example 4, 1-(3-methyl-1-(2-methyl-6-(3-(1-methyl-1H-benzo[d]imidazol-2-yl)azetidin-1-yl)pyrimidin-4-yl)-1H-1,2,4-triazol-5-yl)propan-1-ol]
[1]; read-out: PDE10a Ki
  Ki: 0.51 nM

## CCC(O)c1nc(C)nn1-c1cc(N2CC(c3nc4ccccc4n3C)C2)nc(C)n1 (single isomer, unassigned) [Example 4a, 1-(3-methyl-1-(2-methyl-6-(3-(1-methyl-1H-benzo[d]imidazol-2-yl)azetidin-1-yl)pyrimidin-4-yl)-1H-1,2,4-triazol-5-yl)propan-1-ol]
[1]; read-out: PDE10a Ki
  Ki: 1.8 nM

## COc1nc(N2CC(c3nc4ccccc4n3C)C2)cc(-n2nc(C)nc2C(C)O)n1 (stereo not shown) [Example 9, 1-(1-(2-methoxy-6-(3-(1-methyl-1H-benzo[d]imidazol-2-yl)azetidin-1-yl)pyrimidin-4-yl)-3-methyl-1H-1,2,4-triazol-5-yl)ethanol]
[1]; read-out: PDE10a Ki
  Ki: 1.2 nM
